Measurements taken from the NIST ThermoML archive (doi:10.1016/j.jct.2016.07.020).

Test: mn = molality of the nth substance listed, in mol/kg
Conditions: 101.3 kPa, Liquid, Capillary tube (Ostwald / Ubbelohde) method

O=C1O[C@H]([C@@H](O)CO)C(O)=C1O [L-ascorbic acid] + O
viscosity [mPa·s]
Conditions	288.15 K	298.15 K	308.15 K	318.15 K
m1 = 0.05	1.163	0.91	0.732	0.605
m1 = 0.15	1.21	0.944	0.759	0.625
m1 = 0.25	1.257	0.979	0.787	0.646
m1 = 0.35	1.305	1.017	0.813	0.669

OC[C@@H](O)[C@H](O)[C@H](O)[C@@H](O)CO [dulcitol] + O
viscosity [mPa·s]
Conditions	m1 = 0.04	m1 = 0.0603	m1 = 0.0797	m1 = 0.1002	m1 = 0.1196	m1 = 0.14	m1 = 0.1597	m1 = 0.1795
288.15 K	1.161	1.172	1.183	1.191	1.202	1.213	1.221	1.229
298.15 K	0.904	0.912	0.919	0.926	0.933	0.939	0.948	0.953
308.15 K	0.73	0.736	0.741	0.746	0.751	0.756	0.761	0.766
318.15 K	0.602	0.607	0.61	0.614	0.617	0.623	0.626	0.628

CO[C@H]1O[C@H](CO)[C@@H](O)[C@H](O)[C@H]1O [methyl-α-D-glucopyranoside] + O
viscosity [mPa·s]
Conditions	m1 = 0.0397	m1 = 0.06	m1 = 0.08	m1 = 0.0999	m1 = 0.1191	m1 = 0.1402	m1 = 0.1599	m1 = 0.1801
288.15 K	1.159	1.172	1.183	1.194	1.206	1.218	1.23	1.241
298.15 K	0.906	0.916	0.925	0.931	0.94	0.948	0.956	0.964
308.15 K	0.732	0.739	0.745	0.751	0.757	0.764	0.77	0.777
318.15 K	0.606	0.611	0.616	0.621	0.625	0.631	0.636	0.64

OC[C@@H](O)[C@H](O)[C@@H](O)CO [xylitol] + O
viscosity [mPa·s]
Conditions	m1 = 0.0399	m1 = 0.0599	m1 = 0.08	m1 = 0.0999	m1 = 0.1196	m1 = 0.1396	m1 = 0.1593	m1 = 0.1801
288.15 K	1.16	1.17	1.179	1.188	1.197	1.206	1.214	1.223
298.15 K	0.905	0.913	0.919	0.926	0.933	0.939	0.947	0.954
308.15 K	0.73	0.736	0.742	0.746	0.751	0.757	0.762	0.766
318.15 K	0.604	0.608	0.612	0.616	0.621	0.625	0.63	0.634
